Data reported in patent US7442240B2, “Alkoxylpropylisothiazolinone and preparation method and use thereof” (Ocean University of China, priority 2004, dated 2008).

Key:
coliform bacteria = assay: lowest bacteriostasis concentration, tube double dilution method; format: cell-based; conditions: 10^7 cfu/ml, 24 hours, 37° C.
Procedure: (§1) The lowest bacteriostasis concentration of the six kinds of the alkoxylpropylisothiazolinone of the present invention is measured through the tube double dilution method. In a Φ18×180 mm tube, 5 ml aseptic culture medium was added, then 50 μl bacteria suspended liquid of coliform was injected to prepare culture solution of beef extract peptone having bacteria concentration of 10^7 cfu/ml, then 50 μl tetrahydrofuran solution containing 4,5-dichloro-2-isopropoxypropyl-4-isothiazolin-3-one with the concentration of 2 μg/ml, 4 μg/ml, 8 μg/ml, 16 μg/ml, 32 μg/ml were added respectively. After cultured for 24 hours under a constant temperature of 37° C., the lowest bacteriostasis concentration of 4,5-dichloro-2-isopropoxypropyl-4-isothiazolin-3-one against coliform bacteria was measured. The result is 8 μg/ml (the cfu is a colong forming unit, 1 cfu refer to one single colong formed on the agar plate after being cultured).

heterotrophic bacteria = assay: sterilization test in industrial cooling (circulating) water system; conditions: for the amount of the heterotrophic bacteria, virtual result / the rate of sterilization: 50 mg/L medicament; for control and sterilization of microorganism in industry cooling water (in words): industrial cooling water
Text: The compound of the present invention may be used to control and sterilize alga, fungi and bacteria in the industrial cooling water system. First, chlorine was stopped adding into the circulating water system for 3 days before administration. The total amount of the heterotrophic bacteria in the circulating water was raised, and then the 4,5-dichloro-2-methoxyethoxypropyl-4-isothiazolin-3-one was thrown in, while the discharge of the water was stopped. The amount of the heterotrophic bacteria in water and the sterilization rate was measured at 4 hours, 12 hours, 24 hours, 36 hours after the medicament was added.

saccharomyces cerevisiae = assay: lowest bacteriostasis concentration, tube double dilution method; format: cell-based; conditions: 24 hours, 37° C.
Procedure: as §1
(§2) When the coliform bacteria of the present invention is replaced with saccharomyces cerevisiae or staphylococcus aureus, and the 4,5-dichloro-2-isopropoxypropyl-4-isothiazolin-3-one is replaced with 4,5-dichloro-2-methoxy-propyl-4-isothiazolin-3-one, 4,5-dichloro-2-ethoxypropyl-4-isothiazolin-3-one, 4,5-dichloro-2-butoxypropyl-4-isothiazolin-3-one, 4,5-dichloro-2-methoxyethoxypropyl-4-isothiazolin-3-one, or 4,5-dichloro-2-chlorophenoxyethoxypropyl-4-isothiazolin-3-one, a considerable experimental results are also received, which are shown in the following table.

staphylococcus aureus = assay: as above; format: cell-based; conditions: 24 hours, 37° C.
Procedure: as §1, §2

leaf spot of beet = assay: drug action and field test against leaf spot of beet; format: in vivo
Text: Otherwise, it has also a good prevent function to the apple ring rot, tomato gray mold and cotton soreshin. For example, when the 4,5-dichloro-2-isopropoxypropyl-4-isothiazolin-3-one is used as bactericide, it is merely required 39 g pure medicament per mu ( 1/15 of a hectare) with the concentration of 250 ppm to control the leaf spot of bee, and the efficiency of the prevention and cure is up to 75.0%.

Compound | lowest bacteriostasis concentration (coliform bacteria) | the amount of the heterotrophic bacteria, virtual result (heterotrophic bacteria; 4 h after addition) | the rate of sterilization (heterotrophic bacteria; 4 h after addition) | the amount of the heterotrophic bacteria, virtual result (heterotrophic bacteria; 12 h after addition) | the rate of sterilization (heterotrophic bacteria; 12 h after addition) | the amount of the heterotrophic bacteria, virtual result (heterotrophic bacteria; 24 h after addition) | the rate of sterilization (heterotrophic bacteria; 24 h after addition) | the amount of the heterotrophic bacteria, virtual result (heterotrophic bacteria; 36 h after addition) | the rate of sterilization (heterotrophic bacteria; 36 h after addition) | lowest bacteriostasis concentration (saccharomyces cerevisiae) | lowest bacteriostasis concentration (staphylococcus aureus) | effect of the prevention and cure (in words) (leaf spot of beet) | control and sterilization of microorganism in industry cooling water (in words) (heterotrophic bacteria) | efficiency of the prevention and cure (leaf spot of beet; 39 g pure medicament per mu, 250 ppm)
COCCOCCCn1sc(Cl)c(Cl)c1=O [4,5-dichloro-2-methoxyethoxypropyl-4-isothiazolin-3-one] | 16 µg/mL | 2.0 × 10^5 number/mL | 99.33% | 4.0 × 10^4 number/mL | 99.87% | 3.0 × 10^4 number/mL | 99.90% | 3.3 × 10^4 number/mL | 99.89% | 16 µg/mL | 16 µg/mL | considerable effect of the prevention and cure |  | 
COC(COC(C)Cn1sc(Cl)c(Cl)c1=O)OC (centres unmarked) [4,5-dichloro-2-dimethoxyethoxypropyl-4-isothiazolin-3-one] |  |  |  |  |  |  |  |  |  |  |  | considerable effect of the prevention and cure |  | 
CC(C)OCCCn1sc(Cl)c(Cl)c1=O [4,5-dichloro-2-isopropoxypropyl-4-isothiazolin-3-one] | 8 µg/mL |  |  |  |  |  |  |  |  | 8 µg/mL | 16 µg/mL | considerable effect of the prevention and cure | controlled and sterilized effectively | up to 75.0%
CCCCOCCCn1sc(Cl)c(Cl)c1=O | 4 µg/mL |  |  |  |  |  |  |  |  | 4 µg/mL | 8 µg/mL |  | controlled and sterilized effectively | 
CCOCCCn1sc(Cl)c(Cl)c1=O [4,5-dichloro-2-ethoxypropyl-4-isothiazolin-3-one] | 4 µg/mL |  |  |  |  |  |  |  |  | 8 µg/mL | 16 µg/mL | considerable effect of the prevention and cure | controlled and sterilized effectively | 
O=c1c(Cl)c(Cl)sn1CCCOCCOc1ccc(Cl)cc1 [4,5-dichloro-2-chlorophenoxyethoxypropyl-4-isothiazolin-3-one] | 8 µg/mL |  |  |  |  |  |  |  |  | 8 µg/mL | 16 µg/mL |  |  | 
COCCCn1sc(Cl)c(Cl)c1=O | 4 µg/mL |  |  |  |  |  |  |  |  | 16 µg/mL | 32 µg/mL |  | controlled and sterilized effectively | 
